Drawing on patent US9670212B2, “Inhibitors of PI3K-delta and methods of their use and manufacture” (Exelixis, Inc., priority 2010, dated 2017), this text covers IC50 for 35 molecules.

Some results are limits rather than exact numbers.

PI3K delta, sequence (O00329 whole entry): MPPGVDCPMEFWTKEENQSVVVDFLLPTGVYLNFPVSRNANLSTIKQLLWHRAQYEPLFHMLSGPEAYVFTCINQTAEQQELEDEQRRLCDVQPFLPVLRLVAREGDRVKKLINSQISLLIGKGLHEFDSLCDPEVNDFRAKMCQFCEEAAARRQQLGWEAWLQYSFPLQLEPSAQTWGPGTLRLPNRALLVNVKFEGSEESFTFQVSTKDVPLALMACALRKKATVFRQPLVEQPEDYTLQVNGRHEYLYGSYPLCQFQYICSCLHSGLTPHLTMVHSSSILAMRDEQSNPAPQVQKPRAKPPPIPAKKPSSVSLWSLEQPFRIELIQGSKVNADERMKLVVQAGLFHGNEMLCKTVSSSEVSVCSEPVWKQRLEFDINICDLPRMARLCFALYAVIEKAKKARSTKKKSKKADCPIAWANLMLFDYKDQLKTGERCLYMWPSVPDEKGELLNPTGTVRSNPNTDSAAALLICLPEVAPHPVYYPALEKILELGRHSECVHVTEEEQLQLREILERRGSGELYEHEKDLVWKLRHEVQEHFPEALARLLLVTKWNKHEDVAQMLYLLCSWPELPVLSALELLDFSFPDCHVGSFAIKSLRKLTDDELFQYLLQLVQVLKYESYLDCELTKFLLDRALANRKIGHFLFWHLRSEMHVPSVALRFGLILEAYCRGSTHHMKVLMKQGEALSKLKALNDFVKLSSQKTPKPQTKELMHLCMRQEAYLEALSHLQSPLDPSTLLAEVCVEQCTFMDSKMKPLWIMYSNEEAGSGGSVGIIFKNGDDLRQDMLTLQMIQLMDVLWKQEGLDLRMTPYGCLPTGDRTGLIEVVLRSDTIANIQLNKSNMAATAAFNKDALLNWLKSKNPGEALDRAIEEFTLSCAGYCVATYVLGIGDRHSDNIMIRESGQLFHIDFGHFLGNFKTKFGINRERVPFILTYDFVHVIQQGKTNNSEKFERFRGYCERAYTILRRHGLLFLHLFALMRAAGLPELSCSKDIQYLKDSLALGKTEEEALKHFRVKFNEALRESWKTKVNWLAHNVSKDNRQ
PI3K delta, sequence (P27986 whole entry partner): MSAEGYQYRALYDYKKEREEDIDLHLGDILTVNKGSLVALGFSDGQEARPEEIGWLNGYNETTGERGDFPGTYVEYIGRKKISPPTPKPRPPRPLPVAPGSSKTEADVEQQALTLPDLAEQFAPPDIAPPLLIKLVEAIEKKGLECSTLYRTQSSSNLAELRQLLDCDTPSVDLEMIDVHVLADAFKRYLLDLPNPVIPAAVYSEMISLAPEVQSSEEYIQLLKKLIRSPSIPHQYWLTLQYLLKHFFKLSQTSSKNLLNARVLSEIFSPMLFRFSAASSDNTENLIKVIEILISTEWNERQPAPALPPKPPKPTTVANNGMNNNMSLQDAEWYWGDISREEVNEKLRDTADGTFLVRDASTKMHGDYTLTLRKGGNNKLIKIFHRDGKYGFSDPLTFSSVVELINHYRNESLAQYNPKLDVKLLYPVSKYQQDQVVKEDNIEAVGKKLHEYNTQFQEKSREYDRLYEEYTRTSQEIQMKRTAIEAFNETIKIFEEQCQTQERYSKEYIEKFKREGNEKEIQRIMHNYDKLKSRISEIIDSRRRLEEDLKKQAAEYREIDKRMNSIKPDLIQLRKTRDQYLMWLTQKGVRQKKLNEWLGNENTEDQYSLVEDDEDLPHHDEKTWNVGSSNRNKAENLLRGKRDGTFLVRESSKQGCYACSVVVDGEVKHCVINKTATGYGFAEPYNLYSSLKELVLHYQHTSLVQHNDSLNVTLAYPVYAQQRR

The target in the test is PI3K delta (Homo sapiens (Human), UniProt O00329). Nature of the test: Luciferase-coupled chemiluminescence kinase assay (KinaseGlo, ATP consumption). It is filed as biochemical. The method, then:
Kinase activity and compound inhibition were investigated using one or more of the assay formats described below. The ATP concentrations used in the various assays were approximately equal to or less than the KM for each of the respective kinases. Dose-response experiments were performed using an intra-plate dilution scheme with 10 different inhibitor concentrations in a 384-well microtiter plate. […] Typically N should approximate unity. Curve fitting was performed using XLFit or ActivityBase. Luciferase-Coupled Chemiluminescence Assay Protocol
Kinase activity is measured as the percent of ATP consumed following the kinase reaction using luciferase-luciferin-coupled chemiluminescence. […] Kinase reactions were initiated by combining test compounds, kinase, and ATP in a 20 μL volume (6 μL volume for 1536-well plate). The reaction mixture was incubated at ambient temperature for 2 h. Following the kinase reaction, a 20 μL (or 3 μL for 1536-well plate) aliquot of KinaseGlo (Promega) was added and the chemiluminescence signal measured using an EnVision plate reader (Perkin Elmer).
For orientation: Kinase-Glo measures the ATP left after a reaction by luminescence.
By IC50 is commonly meant the midpoint of a concentration-inhibition curve. The low end stands for inhibition by little substance, the high end for a need for much substance. Molecule `Cc1cccc2cc(CNC(=O)c3nccnc3N)c(N(C)CCN(C)C(=O)Cn3ccnc3)nc12` [Compound 85, 3-amino-N-({2-[{2-[(1H-imidazol-1-ylacetyl)(methyl)amino]ethyl}(methyl)amino]-8-methylquinolin-3-yl}methyl)pyrazine-2-carboxamide] displayed an IC50 of under 50 nM. To `Cc1ccccc1-c1cc2ccccc2nc1CNC(=O)c1nccnc1N` [Compound 142, 3-amino-N-{[3-(2-methylphenyl)quinolin-2-yl]methyl}pyrazine-2-carboxamide] belongs 500 to 1500 nM; to `Cc1cccc2cc(Cn3cnc4c(N)ncnc43)c(N3CCNCC3)nc12` [Compound 172, 9-[(8-methyl-2-piperazin-1-ylquinolin-3-yl)methyl]-9H-purin-6-amine], 50 to 250 nM. The value for `Cc1cccc2cc(Cn3cnc4c(N)ncnc43)c(NS(C)(=O)=O)nc12` [Compound 153, N-{3-[(6-amino-9H-purin-9-yl)methyl]-8-methylquinolin-2-yl}methanesulfonamide] was 500 to 1500 nM; that for `Cc1cccc2cc(CNC(=O)c3nccnc3N)c(-c3ccccc3Cl)nc12` [Compound 148, 3-amino-N-{[2-(2-chlorophenyl)-8-methylquinolin-3-yl]methyl}pyrazine-2-carboxamide] was 50 to 250 nM; that for `Cc1ccccc1-n1c(Cn2cnc3c(N)ncnc32)nc2ccsc2c1=O` [Compound 162, 2-[(6-amino-9H-purin-9-yl)methyl]-3-(2-methylphenyl)thieno[3,2-d]pyrimidin-4(3H)-one] was 500 to 1500 nM. To `Nc1nccnc1C(=O)NCc1nc2ccccc2cc1-c1cccc(CN2CCOCC2)c1` [Compound 72, 3-amino-N-({3-[3-(morpholin-4-ylmethyl)phenyl]quinolin-2-yl}methyl)pyrazine-2-carboxamide] belongs 500 to 1500 nM; to `Cc1cccc2cc(Cn3cnc4c(N)ncnc43)c(N(C)CC3CCCCN3C)nc12` (centres unmarked) [Compound 3, 3-[(6-amino-9H-purin-9-yl)methyl]-N,8-dimethyl-N-[(1-methylpiperidin-2-yl)methyl]quinolin-2-amine], under 50 nM. Regarding `Cc1ccccc1-c1nc2c(C)cccc2cc1Cn1cnc2c(N)ncnc21` [Compound 189, 9-{[8-methyl-2-(2-methylphenyl)quinolin-3-yl]methyl}-9H-purin-6-amine], the IC50 was 50 to 250 nM. To `Cc1cccc2cc(CNC(=O)c3nccnc3N)c(NCCN(C)C)nc12` [Compound 129, 3-amino-N-[(2-{[2-(dimethylamino)ethyl]amino}-8-methylquinolin-3-yl)methyl]pyrazine-2-carboxamide] belongs 500 to 1500 nM. For the molecule `Cc1cccc2cc(CNC(=O)c3nccnc3N)c(N3CCCN(Cc4nccn4C)CC3)nc12` [Compound 62, 3-amino-N-[(8-methyl-2-{4-[(1-methyl-1H-imidazol-2-yl)methyl]-1,4-diazepan-1-yl}quinolin-3-yl)methyl]pyrazine-2-carboxamide], the IC50 fell in the range of 500 to 1500 nM. The value for `COc1cccc(CNCc2cc3cccc(C)c3nc2-c2ccccc2Cl)c1` [Compound 6, 1-[2-(2-chlorophenyl)-8-methylquinolin-3-yl]-N-{[3-(methyloxy)phenyl]methyl}methanamine] was 500 to 1500 nM. `CNCCN(C)c1nc2c(C)cccc2cc1-c1nnc(-c2nccnc2N)o1` [Compound 29, N-{3-[5-(3-aminopyrazin-2-yl)-1,3,4-oxadiazol-2-yl]-8-methylquinolin-2-yl}-N,N′-dimethylethane-1,2-diamine]: the IC50 fell in the range of 500 to 1500 nM.

`Cc1cccc2cc(CNC(=O)c3nccnc3N)c(N3CCCN(C(=O)Cn4ccnc4)CC3)nc12` [Compound 54, 3-amino-N-({2-[4-(1H-imidazol-1-ylacetyl)-1,4-diazepan-1-yl]-8-methylquinolin-3-yl}methyl)pyrazine-2-carboxamide] had an IC50 of 500 to 1500 nM. Consider `Cc1cccc2cc(CNC(=O)c3nccnc3N)c(N(C)Cc3cccnc3)nc12` [Compound 87, 3-amino-N-({8-methyl-2-[methyl(pyridin-3-ylmethyl)amino]quinolin-3-yl}methyl)pyrazine-2-carboxamide], for which the concentration for half-maximal inhibition (IC50) was 50 to 250 nM. To `Cc1cccc2cc(CNc3ncnc4[nH]cnc34)c(N3CCNCC3)nc12` [Compound 37, N-[(8-methyl-2-piperazin-1-ylquinolin-3-yl)methyl]-9H-purin-6-amine] belongs under 50 nM; to `CCN1CCN(c2nc3c(C)cccc3cc2CNc2ncnc3[nH]cnc23)CC1` [Compound 144, N-{[2-(4-ethylpiperazin-1-yl)-8-methylquinolin-3-yl]methyl}-9H-purin-6-amine], under 50 nM; to `Cc1cccc2cc(CNc3ncnc4[nH]cnc34)c(N3CCCCC3)nc12` [Compound 27, N-[(8-methyl-2-piperidin-1-ylquinolin-3-yl)methyl]-9H-purin-6-amine], 50 to 250 nM. As for `CNC(=O)CN(C)CCN(C)c1nc2c(C)cccc2cc1CNC(=O)c1nccnc1N` [Compound 76, 3-amino-N-({8-methyl-2-[methyl(2-{methyl[2-(methylamino)-2-oxoethyl]amino}ethyl)amino]quinolin-3-yl}methyl)pyrazine-2-carboxamide], the IC50 is 50 to 250 nM.

`Cc1cccc2cc(CNC(=O)c3nccnc3N)c(N3CC(C)NC[C@H]3C)nc12` (stereo in doubt) [Compound 123, 3-amino-N-({2-[(2R,5S)-2,5-dimethylpiperazin-1-yl]-8-methylquinolin-3-yl}methyl)pyrazine-2-carboxamide] yielded an IC50 of 250 to 500 nM. `COCCN(C)c1nc2c(C)cccc2cc1CNC(=O)c1nccnc1N` [Compound 104, 3-amino-N-[(8-methyl-2-{methyl[2-(methyloxy)ethyl]amino}quinolin-3-yl)methyl]pyrazine-2-carboxamide] displayed an IC50 of 500 to 1500 nM. To `Cc1ccccc1-c1cc2ccccc2nc1CNC(=O)c1ncc(N2CCOCC2)nc1N` [Compound 105, 3-amino-N-{[3-(2-methylphenyl)quinolin-2-yl]methyl}-5-morpholin-4-ylpyrazine-2-carboxamide] belongs 500 to 1500 nM.

For `Cc1ccccc1-c1cc2ccccc2nc1CNC(=O)c1cncnc1N` [Compound 108, 4-amino-N-{[3-(2-methylphenyl)quinolin-2-yl]methyl}pyrimidine-5-carboxamide], the IC50 was in the range of 500 to 1500 nM. The value for `Cc1cccc2cc(CNC(=O)c3nccnc3N)c(N(C)CCN(C)C(=O)Cn3ccnn3)nc12` [Compound 100, 3-amino-N-{[8-methyl-2-(methyl{2-[methyl(1H-1,2,3-triazol-1-ylacetyl)amino]ethyl}amino)quinolin-3-yl]methyl}pyrazine-2-carboxamide] was under 50 nM; that for `Cc1cccc2cc(CNC(=O)c3nccnc3N)c(N3CCCN(C(=O)CN(C)C)CC3)nc12` [Compound 137, 3-amino-N-({2-[4-(N,N-dimethylglycyl)-1,4-diazepan-1-yl]-8-methylquinolin-3-yl}methyl}pyrazine-2-carboxamide] was 250 to 500 nM; that for `Cc1cccc2cc(Cn3cnc4c(N)ncnc43)c(N(C)CCN(C)C(=O)Cn3cccn3)nc12` [Compound 28, N-{2-[{3-[(6-amino-9H-purin-9-yl)methyl]-8-methylquinolin-2-yl}(methyl)amino]ethyl}-N-methyl-2-(1H-pyrazol-1-yl)acetamide] was under 50 nM. The molecule `Cc1cccc2cc(CNc3ncnc4[nH]cnc34)c(N3CCN4CCCCC4C3)nc12` (centres unmarked) [Compound 12, N-{[8-methyl-2-(octahydro-2H-pyrido[1,2-a]pyrazin-2-yl)quinolin-3-yl]methyl}-9H-purin-6-amine] gave an IC50 of under 50 nM. As for `Cc1cccc2cc(CNC(=O)c3nccnc3N)c(N3CCCN(C)CC3)nc12` [Compound 140, 3-amino-N-{[8-methyl-2-(4-methyl-1,4-diazepan-1-yl)quinolin-3-yl]methyl}pyrazine-2-carboxamide], the IC50 was 250 to 500 nM. To `Cc1cccc2cc(Cn3cnc4c(N)ncnc43)c(N3CC4CC3CN4C)nc12` (centres unmarked) [Compound 150, 9-{[8-methyl-2-(5-methyl-2,5-diazabicyclo[2.2.1]hept-2-yl)quinolin-3-yl]methyl}-9H-purin-6-amine] belongs 500 to 1500 nM; to `Cc1cccc2cc(CNC(=O)c3nccnc3N)c(CCCO)nc12` [Compound 50, 3-amino-N-{[2-(3-hydroxypropyl)-8-methylquinolin-3-yl]methyl}pyrazine-2-carboxamide], 500 to 1500 nM; to `CNCCN(C)c1nc2c(C)cccc2cc1CN1CCOCC1` [Compound 21, N,N′-dimethyl-N-[8-methyl-3-(morpholin-4-ylmethyl)quinolin-2-yl]ethane-1,2-diamine], 500 to 1500 nM. The value for `Cc1cccc2cc(Cn3cnc4c(N)ncnc43)c(N3CCCC3)nc12` [Compound 171, 9-[(8-methyl-2-pyrrolidin-1-ylquinolin-3-yl)methyl]-9H-purin-6-amine] was 50 to 250 nM.

As to `Cc1ccccc1-n1c(CNC(=O)c2ncccc2N)nc2cccc(C)c2c1=O` [Compound 161, 3-amino-N-{[5-methyl-3-(2-methylphenyl)-4-oxo-3,4-dihydroquinazolin-2-yl]methyl}pyridine-2-carboxamide], the IC50 lay within 500 to 1500 nM. To `Cc1cccc2cc(CNC(=O)c3nccnc3N)c(N(C)CC3CCCCN3C)nc12` (centres unmarked) [Compound 39, 3-amino-N-[(8-methyl-2-{methyl[(1-methylpiperidin-2-yl)methyl]amino}quinolin-3-yl)methyl]pyrazine-2-carboxamide] belongs under 50 nM.

As to `Cc1cccc2cc(CNC(=O)c3nccnc3N)c(N(Cc3ccccn3)Cc3ccccn3)nc12` [Compound 47, 3-amino-N-({2-[bis(pyridin-2-ylmethyl)amino]-8-methylquinolin-3-yl}methyl)pyrazine-2-carboxamide], the IC50 lay in the range of 500 to 1500 nM.
